Data taken from US20160030415A1, “TREATMENT AND PROPHYLAXIS OF KIDNEY DISEASES” (priority 2013, published 2016).

Tested on: Streptozocin (STZ) induced diabetic rats
Experiment: Study 1: HCQ and its combination with Losartan in renal damage, comparison with diabetic control
Type: in vivo, Wistar rats
Settings: after 8 weeks oral once daily, Losartan 5.5 mg/kg, Hydroxychloroquine 22.5 mg/kg; for GSH (% Naive) / GSH Mean ± SEM / TBARS (% Naive) / TBARS Mean ± SEM: kidney homogenate
Description: The Efficacy of the drugs was tested in two different models, one involving comparison with diabetic control (i.e. Diabetic Rats not treated with any medication) and the other involving comparison with the anti-diabetic control group (i.e. Diabetic rats administered Glimepiride) in two separate studies. 25 male Wistar rats weighing 150-250 g were divided randomly into 5 groups consisting of 5 animals each. Diabetes was induced in rats by single administration of streptozotocin (55 mg/kg/i.p) dissolved in 0.1 M-citrate buffer, pH 4.5. Group 1 (normal control) consisted of normal rats that neither received Streptozotocin (STZ) nor any test drug; Group 2 served as streptozotocin induced diabetic control. Group 3 was diabetic rats treated with Losartan (LT) (5.5 mg/kg); Group 4 was diabetic rats treated with Hydroxychloroquine (HCQ) (22.5 mg/kg), Group 5 was diabetic rats treated with combination of HCQ (22.5 mg/kg) and LT (5.5 mg/kg). The study drugs were dissolved/suspended in distilled water and administered orally once a day for eight weeks. Blood glucose levels and renal oxidative stress parameters including TBARS, GSH and total Protein in Kidney Homogenate were assessed after the completion of eighth week of the study.

| SMILES | Blood glucose level (% Control) | Blood glucose level Mean ± SEM | Total Protein in Kidney Homogenate (% Naive) | Total Protein in Kidney Homogenate Mean ± SEM | GSH (% Naive) | GSH Mean ± SEM | TBARS (% Naive) | TBARS Mean ± SEM |
| --- | --- | --- | --- | --- | --- | --- | --- | --- |
| CCN(CCO)CCCC(C)Nc1ccnc2cc(Cl)ccc12 (stereo not shown) [Hydroxychloroquine, 2-[{4-[(7-chloroquinolin-4-yl)amino]pentyl}(ethyl)amino]ethanol] | (62.64)) % Control | 369.9 ± 42.3 mg/dL | (190.71) % Naive | 1098.00 ± 23.12 µg/mL | (41.92) % Naive | 0.827 ± 0.08 nM/mg | (178.29) % Naive | 0.772 ± 0.06 nM/mg |
| CCCCc1nc(Cl)c(CO)n1Cc1ccc(-c2ccccc2-c2nn[nH]n2)cc1 [Losartan] | (98.57) % Control | 582.1 ± 00^ mg/dl | (204.95) % Naive | 1180.00 µg/mL | (41.92) % Naive | 0.827 nM/mg | (186.61) % Naive | 0.808 nM/mg |
